Data taken from patent publication US7138361B2, “Herbicidal heterocycles” (E. I. du Pont de Nemours and Company, priority 2000, dated 2006).

Key:
Format in all cases: in vivo
[1] = tested on: Nightshade; assay: Test C preemergence; conditions: Rate 500 g/ha, visual evaluation after 12 to 14 days
[2] = tested on: lambsquarters (Chenopodium album); assay: Test B preemergence
How it was run: (§1)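 Ratings on a 0 to 100 visual scale (100 complete control) compare treated plants with controls 13 to 15 days after application. Treatments were pre- or postemergence sprays of compound in non-phytotoxic solvent with surfactant.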

[3] = tested on: morning glory (Ipomoea hederacea); assay: Test B preemergence
How it was run: as §1

[4] = tested on: barnyardgrass (Echinochloa crus-galli); assay: Test B preemergence
How it was run: as §1

[5] = tested on: cocklebur (Xanthium strumarium); assay: Test B preemergence
How it was run: as §1

[6] = tested on: pigweed (Amaranthus retroflexus); assay: Test B preemergence
How it was run: as §1

[7] = tested on: rice (Oryza saliva); assay: Test B preemergence
How it was run: as §1

[8] = tested on: corn (Zea mays); assay: Test B preemergence
How it was run: as §1

[9] = tested on: crabgrass (Digitaria sanguinalis); assay: Test B preemergence
How it was run: as §1

[10] = tested on: Surinam grass (Brachiaria decumbens); assay: Test B preemergence
How it was run: as §1

[11] = tested on: velvetleaf (Abutilon theophrasti); assay: Test B preemergence
How it was run: as §1

[12] = tested on: giant foxtail (Setaria faberii); assay: Test B preemergence
How it was run: as §1

[13] = tested on: rice (Oryza saliva); assay: Test C flooded paddy test; conditions: for Rice plant response rating: Flooded Paddy, scale 0 to 100, 0 no effect, 100 complete control; for Plant response rating, Rice: flooded paddy test, scale 0 to 100 (0 no effect, 100 complete control)
How it was run: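 Plants were grown to the 2-leaf stage under flooded paddy conditions and treated. They were then kept in a greenhouse for 12 to 14 days and visually rated against untreated controls on a 0–100 scale, where 0 is no effect and 100 is complete control.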

[14] = tested on: Sunflower; assay: Test C preemergence; conditions: Rate 250 g/ha, scale 0 to 100, 0 no effect, 100 complete control
[15] = tested on: lambsquarters (Chenopodium album); assay: Test B postemergence
How it was run: as §1

[16] = tested on: blackgrass (Alopecurus myosuroides); assay: Test B postemergence
How it was run: as §1

[17] = tested on: morning glory (Ipomoea hederacea); assay: Test B postemergence
How it was run: as §1

[18] = tested on: barnyardgrass (Echinochloa crus-galli); assay: Test B postemergence
How it was run: as §1

[19] = tested on: cocklebur (Xanthium strumarium); assay: Test B postemergence
How it was run: as §1

[20] = tested on: pigweed (Amaranthus retroflexus); assay: Test B postemergence
How it was run: as §1

[21] = tested on: wheat (Triticum aestivum); assay: Test B postemergence
How it was run: as §1

[22] = tested on: corn (Zea mays); assay: Test B postemergence
How it was run: as §1

[23] = tested on: crabgrass (Digitaria sanguinalis); assay: Test B postemergence
How it was run: as §1

[24] = tested on: Surinam grass (Brachiaria decumbens); assay: Test B postemergence
How it was run: as §1

[25] = tested on: velvetleaf (Abutilon theophrasti); assay: Test B postemergence
How it was run: as §1

[26] = tested on: giant foxtail (Setaria faberii); assay: Test B postemergence
How it was run: as §1

[27] = tested on: wild oat (Avena fatua); assay: Test B postemergence
How it was run: as §1

[28] = Preemergence, Rate 500 g/ha, scale 0 to 100, 0 no effect, 100 complete control
[29] = preemergence, Rate 125 g/ha, scale of 0 to 100 where 0 is no effect and 100 is complete control, 13 to 15 days
[30] = Rate 125 g/ha, scale 0 to 100, 0 no effect, 100 complete control
[31] = Rate 500 g/ha, scale 0 to 100, 0 is no effect, 100 is complete control, 13 to 15 days
[32] = Rate 125 g/ha, scale 0 (no effect) to 100 (complete control), 13 to 15 days

## CC(C)c1cccc(N2CCC(n3ccc(C(C)(C)C)n3)C2=O)c1 (centres unmarked) [Compound 111]
[1]
  Plant response rating (0 to 100), Nightshade: 0
[2]; [28]
  Plant response rating, Lambsquarters: 100
[2]; [29]
  Plant response rating, Lambsquarters: 30
[3]; [28]
  Plant response rating, Morningglory: 0
[3]; [29]
  Plant response rating, Morningglory: 0
[4]; [28]
  Plant response rating, Barnyardgrass: 100
[4]; [29]
  Plant response rating, Barnyardgrass: 0
[5]; [28]
  Plant response rating, Cocklebur: 0
[5]; [29]
  Plant response rating, Cocklebur: 0
[6]; [28]
  Plant response rating, Pigweed: 100
[6]; [29]
  Plant response rating, Pigweed: 0
[7]; [28]
  Plant response rating, Rice: 0
[7]; [29]
  Plant response rating, Rice: 0
[8]; [28]
  Plant response rating, Corn: 30
[8]; [29]
  Plant response rating, Corn: 0
[9]; [28]
  Plant response rating, Crabgrass: 100
[9]; [29]
  Plant response rating, Crabgrass: 70
[10]; [28]
  Plant response rating, Surinam grass: 0
[10]; [29]
  Plant response rating, Surinam grass: 0
[11]; [28]
  Plant response rating, Velvetleaf: 0
[11]; [29]
  Plant response rating, Velvetleaf: 0
[12]; [28]
  Plant response rating, Foxtail, Giant: 0
[12]; [29]
  Plant response rating, Foxtail, Giant: 0
[13]; Rate 250 g/ha
  Rice plant response rating: 0
[13]; Rate 500 g/ha
  Rice plant response rating: 0
[13]; Rate 62 g/ha
  Plant response rating, Rice: 0
[13]; Rate 125 g/ha
  Plant response rating, Rice: 0
[14]
  Plant response rating, Sunflower: 0
[15]; [30]
  Plant response rating, Lambsquarters: 0
[15]; [31]
  Plant response rating, Lambsquarters: 20
[16]; [30]
  Plant response rating, Blackgrass: 0
[16]; [31]
  Plant response rating, Blackgrass: 20
[17]; [30]
  Plant response rating, Morningglory: 0
[17]; [31]
  Plant response rating, Morningglory: 0
[18]; [30]
  Plant response rating, Barnyardgrass: 0
[18]; [31]
  Plant response rating, Barnyardgrass: 0
[19]; [30]
  Plant response rating, Cocklebur: 0
[19]; [31]
  Plant response rating, Cocklebur: 0
[20]; [30]
  Plant response rating, Pigweed: 0
[20]; [31]
  Plant response rating, Pigweed: 0
[21]; [30]
  Plant response rating, Wheat: 20
[21]; [31]
  Plant response rating, Wheat: 20
[22]; [30]
  Plant response rating, Corn: 0
[22]; [31]
  Plant response rating, Corn: 0
[23]; [30]
  Plant response rating, Crabgrass: 0
[23]; [31]
  Plant response rating, Crabgrass: 30
[24]; [30]
  Plant response rating, Surinam grass: 0
[24]; [31]
  Plant response rating, Surinam grass: 40
[25]; [30]
  Plant response rating, Velvetleaf: 0
[25]; [31]
  Plant response rating, Velvetleaf: 0
[26]; [30]
  Plant response rating, Foxtail, Giant: 0
[26]; [31]
  Plant response rating, Foxtail, Giant: 0
[27]; [30]
  Plant response rating, Wild Oat: 0
[27]; [31]
  Plant response rating, Wild Oat: 60

## COc1cc(N2CCC(n3ccc(C(C)C)n3)C2=O)ccc1C (centres unmarked) [Compound 85]
[1]
  Plant response rating (0 to 100), Nightshade: 100
[2]; [28]
  Plant response rating, Lambsquarters: 100
[2]; [29]
  Plant response rating, Lambsquarters: 100
[3]; [28]
  Plant response rating, Morningglory: 100
[3]; [29]
  Plant response rating, Morningglory: 90
[4]; [28]
  Plant response rating, Barnyardgrass: 100
[4]; [29]
  Plant response rating, Barnyardgrass: 100
[5]; [28]
  Plant response rating, Cocklebur: 90
[5]; [29]
  Plant response rating, Cocklebur: 40
[6]; [28]
  Plant response rating, Pigweed: 100
[6]; [29]
  Plant response rating, Pigweed: 100
[7]; [28]
  Plant response rating, Rice: 100
[7]; [29]
  Plant response rating, Rice: 100
[8]; [28]
  Plant response rating, Corn: 30
[8]; [29]
  Plant response rating, Corn: 20
[9]; [28]
  Plant response rating, Crabgrass: 100
[9]; [29]
  Plant response rating, Crabgrass: 100
[10]; [28]
  Plant response rating, Surinam grass: 90
[10]; [29]
  Plant response rating, Surinam grass: 60
[11]; [28]
  Plant response rating, Velvetleaf: 100
[11]; [29]
  Plant response rating, Velvetleaf: 20
[12]; [28]
  Plant response rating, Foxtail, Giant: 100
[12]; [29]
  Plant response rating, Foxtail, Giant: 80
[13]; Rate 250 g/ha
  Rice plant response rating: 80
[13]; Rate 500 g/ha
  Rice plant response rating: 100
[13]; Rate 62 g/ha
  Plant response rating, Rice: 30
[13]; Rate 125 g/ha
  Plant response rating, Rice: 60
[14]
  Plant response rating, Sunflower: 70
[15]; [32]
  Plant response rating, Lambsquarters: 30
[15]; [31]
  Plant response rating, Lambsquarters: 90
[16]; [32]
  Plant response rating, Blackgrass: 0
[16]; [31]
  Plant response rating, Blackgrass: 20
[17]; [32]
  Plant response rating, Morningglory: 0
[17]; [31]
  Plant response rating, Morningglory: 80
[18]; [32]
  Plant response rating, Barnyardgrass: 0
[18]; [31]
  Plant response rating, Barnyardgrass: 50
[19]; [32]
  Plant response rating, Cocklebur: 40
[19]; [31]
  Plant response rating, Cocklebur: 100
[20]; [32]
  Plant response rating, Pigweed: 60
[20]; [31]
  Plant response rating, Pigweed: 90
[21]; [32]
  Plant response rating, Wheat: 0
[21]; [31]
  Plant response rating, Wheat: 0
[22]; [32]
  Plant response rating, Corn: 0
[22]; [31]
  Plant response rating, Corn: 30
[23]; [32]
  Plant response rating, Crabgrass: 20
[23]; [31]
  Plant response rating, Crabgrass: 50
[24]; [32]
  Plant response rating, Surinam grass: 0
[24]; [31]
  Plant response rating, Surinam grass: 0
[25]; [32]
  Plant response rating, Velvetleaf: 20
[25]; [31]
  Plant response rating, Velvetleaf: 50
[26]; [32]
  Plant response rating, Foxtail, Giant: 0
[26]; [31]
  Plant response rating, Foxtail, Giant: 20
[27]; [32]
  Plant response rating, Wild Oat: 0
[27]; [31]
  Plant response rating, Wild Oat: 20

## CC(C)(C)c1ccn(C2CCN(c3cccc(SC(F)(F)F)c3)C2=O)n1 (centres unmarked) [Compound 93]
[1]
  Plant response rating (0 to 100), Nightshade: 10
[2]; [28]
  Plant response rating, Lambsquarters: 100
[2]; [29]
  Plant response rating, Lambsquarters: 60
[3]; [28]
  Plant response rating, Morningglory: 0
[3]; [29]
  Plant response rating, Morningglory: 0
[4]; [28]
  Plant response rating, Barnyardgrass: 100
[4]; [29]
  Plant response rating, Barnyardgrass: 0
[5]; [28]
  Plant response rating, Cocklebur: 0
[5]; [29]
  Plant response rating, Cocklebur: 0
[6]; [28]
  Plant response rating, Pigweed: 80
[6]; [29]
  Plant response rating, Pigweed: 0
[7]; [28]
  Plant response rating, Rice: 0
[7]; [29]
  Plant response rating, Rice: 0
[8]; [28]
  Plant response rating, Corn: 0
[8]; [29]
  Plant response rating, Corn: 0
[9]; [28]
  Plant response rating, Crabgrass: 100
[9]; [29]
  Plant response rating, Crabgrass: 20
[10]; [28]
  Plant response rating, Surinam grass: 70
[10]; [29]
  Plant response rating, Surinam grass: 0
[11]; [28]
  Plant response rating, Velvetleaf: 0
[11]; [29]
  Plant response rating, Velvetleaf: 0
[12]; [28]
  Plant response rating, Foxtail, Giant: 90
[12]; [29]
  Plant response rating, Foxtail, Giant: 20
[13]; Rate 250 g/ha
  Rice plant response rating: 20
[13]; Rate 500 g/ha
  Rice plant response rating: 80
[13]; Rate 62 g/ha
  Plant response rating, Rice: 0
[14]
  Plant response rating, Sunflower: 0
[15]; [31]
  Plant response rating, Lambsquarters: 80
[16]; [32]
  Plant response rating, Blackgrass: 0
[16]; [31]
  Plant response rating, Blackgrass: 0
[17]; [31]
  Plant response rating, Morningglory: 10
[18]; [32]
  Plant response rating, Barnyardgrass: 0
[18]; [31]
  Plant response rating, Barnyardgrass: 0
[19]; [32]
  Plant response rating, Cocklebur: 30
[19]; [31]
  Plant response rating, Cocklebur: 50
[20]; [31]
  Plant response rating, Pigweed: 20
[21]; [31]
  Plant response rating, Wheat: 0
[22]; [32]
  Plant response rating, Corn: 0
[22]; [31]
  Plant response rating, Corn: 0
[23]; [32]
  Plant response rating, Crabgrass: 0
[23]; [31]
  Plant response rating, Crabgrass: 0
[24]; [32]
  Plant response rating, Surinam grass: 0
[24]; [31]
  Plant response rating, Surinam grass: 0
[25]; [31]
  Plant response rating, Velvetleaf: 10
[26]; [32]
  Plant response rating, Foxtail, Giant: 0
[26]; [31]
  Plant response rating, Foxtail, Giant: 0
[27]; [31]
  Plant response rating, Wild Oat: 0
